According to patent publication US9150598B2, “Masking apertures enabling automation and solution exchange in sessile bilayers” (The Regents of the University of California, priority 2011, dated 2015):

Experiments:
TRPM8 [1] = molecular target: T1, TRPM8 (Rattus norvegicus, UniProt Q8R455); test: Ensemble TRPM8 currents while varying PI(4,5)P2 concentration; assay type: biochemical; settings: 250 μM menthol, +100 mV, 20° C.
T1 construct: 6x histidine tag (N); made in house; host or cells: E. coli
Protocol: Data were filtered at 200 Hz. Measurements began in the absence of PI(4,5)P2. After ten minutes at each concentration, the concentration of PI(4,5)P2 was then increased by 0.8 μM with the addition of […] PI(4,5)P2 stock solution (100 μM) to the 200 μL lower aqueous solution. With no PI(4,5)P2 in the measurement solution, there was no observed channel activity. As the concentration of PI(4,5)P2 increased, frequency of channel opening increased. […] Throughout experiments, temperature was kept constant at 20° C.
During measurement, solutions were added to the fluid inlet well and withdrawn from the fluid outlet well (FIG. 6D).
Bilayers were formed with this chip at very high yield and with highly consistent diameters (163±14 μm (n=55), measured capacitively).^17 Following bilayer formation, a potential of 0 mV was applied followed by voltage steps from −100 mV to +100 mV, in 20 mV increments for 10 seconds each, and the resulting current measured. We measured no TRPM8 currents in the absence of the signaling phospholipid PI(4,5)P2, in agreement with previous work (B. Liu and F. Qin, J. Neurosci., 2005, 25, 1674-1681; T. Rohács, C. M. B. Lopes, I. Michailidis and D. E. Logothetis, Nat. Neurosci., 2005, 8, 626-634). […] With PI(4,5)P2, constant TRPM8 currents were almost always observed immediately upon bilayer formation.

[2] = Control: DPhPC droplet bilayers made without hERG membrane preparations; settings: identical amounts of drug added
TRPM8 [3] = molecular target: T1, TRPM8; test: Ensemble TRPM8 currents in droplet lipid bilayer with solution perfusion (drug potency); assay type: biochemical; settings: +100 mV
Protocol: (§1) The apparatus was prepared for use by filling the outer wells and lower channel with 200 μL of an aqueous solution containing liposomes (described below) (FIG. 1B). The 200 μm aperture in the hydrophobic Delrin film is sufficiently small to prevent flow of aqueous solution through it. 80 μL of n-decane was then added to the center well, contacting the lower aqueous solution through the Delrin aperture (FIG. 1B). […] The lower aqueous solution could be exchanged by adding and withdrawing fluids through the outer wells (FIG. 1B).
2 μL of this solution was used for the sessile droplet and 200 μL of this solution (or a similarly prepared liposome solution not containing TRPM8) was added to the lower aqueous channel.
A Ag/AgCl counter electrode placed in the one of the outer wells and the Ag/AgCl pin electrode were connected to an Axopatch 200B amplifier (Axon Instruments), which was used to apply a transmembrane potential and measure the resultant ionic current (FIG. 1B). […] Bilayer capacitance was measured throughout to ensure that changes in measured current were due to changes in channel conductance and not changes in bilayer size or stability. […]
The resultant current at each concentration was measured over 10 minutes before the concentration was increased (FIG. 7). […]
The average current at each concentration was determined and normalized by the maximum value measured. […]

TRPM8 [4] = molecular target: T1, TRPM8; test: Single-channel TRPM8 recordings in droplet lipid bilayer (open probability); assay type: biochemical; settings: 20° C., +100 mV, 2.5 μM PI(4,5)P2, n=9
Protocol: as §1
A TRPM8 construct with 6× histidine tag at the amino terminus was transformed into E. coli, expressed, and purified. […] The resulting proteoliposomes were aliquoted and stored at −80° C. […]
A Ag/AgCl counter electrode placed in the one of the outer wells and the Ag/AgCl pin electrode were connected to an Axopatch 200B amplifier (Axon Instruments), which was used to apply a transmembrane potential and measure the resultant ionic current (FIG. 1B). […] Bilayer capacitance was measured throughout to ensure that changes in measured current were due to changes in channel conductance and not changes in bilayer size or stability.
Temperature was measured using a 10 kΩ n-type thermistor (Newark) placed in the solution of one of the outer wells. […]
Ensembles of TRPM8 were measured using a 1:1000 protein:lipid ratio.

T1 sequence (Q8R455 whole entry): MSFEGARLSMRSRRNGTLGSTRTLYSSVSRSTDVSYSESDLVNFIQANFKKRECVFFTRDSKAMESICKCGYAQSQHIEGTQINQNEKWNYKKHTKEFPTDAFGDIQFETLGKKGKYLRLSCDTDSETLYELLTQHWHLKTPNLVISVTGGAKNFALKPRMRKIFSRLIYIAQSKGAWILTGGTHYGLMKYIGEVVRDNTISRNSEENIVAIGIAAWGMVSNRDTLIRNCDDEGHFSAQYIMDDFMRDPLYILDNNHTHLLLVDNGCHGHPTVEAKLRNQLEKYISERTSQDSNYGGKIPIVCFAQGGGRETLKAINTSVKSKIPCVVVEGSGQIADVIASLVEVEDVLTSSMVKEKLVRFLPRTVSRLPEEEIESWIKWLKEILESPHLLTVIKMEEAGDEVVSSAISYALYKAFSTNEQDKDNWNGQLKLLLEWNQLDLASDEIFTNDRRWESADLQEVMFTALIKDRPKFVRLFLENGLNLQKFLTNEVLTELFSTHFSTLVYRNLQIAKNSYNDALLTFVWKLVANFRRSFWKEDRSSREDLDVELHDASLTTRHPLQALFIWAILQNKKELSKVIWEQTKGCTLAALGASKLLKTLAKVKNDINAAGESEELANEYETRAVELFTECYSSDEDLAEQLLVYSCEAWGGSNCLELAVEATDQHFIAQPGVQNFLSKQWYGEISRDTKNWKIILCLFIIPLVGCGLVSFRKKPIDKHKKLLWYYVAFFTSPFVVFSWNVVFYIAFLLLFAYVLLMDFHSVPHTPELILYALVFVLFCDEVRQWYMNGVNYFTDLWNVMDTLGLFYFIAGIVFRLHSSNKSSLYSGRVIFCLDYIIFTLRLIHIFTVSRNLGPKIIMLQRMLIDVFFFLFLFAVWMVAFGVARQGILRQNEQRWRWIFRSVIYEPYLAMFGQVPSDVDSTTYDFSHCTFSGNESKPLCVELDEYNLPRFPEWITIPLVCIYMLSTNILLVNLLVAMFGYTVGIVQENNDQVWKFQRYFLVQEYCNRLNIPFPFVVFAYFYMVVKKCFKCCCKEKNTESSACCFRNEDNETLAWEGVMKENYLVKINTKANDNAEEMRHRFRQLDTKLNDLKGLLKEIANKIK

In the case of “phosphatidylinositol-4,5-bisphosphate [PI(4,5)P2]”, the “PI(4,5)P2 concentration at which maximum current did not increase further” value (TRPM8 [1]) is reported as 2.4 µM.
In the case of `COc1ccc(CCN2CCC(Nc3nc4ccccc4n3Cc3ccc(F)cc3)CC2)cc1` [astemizole], the “Effect on bilayers without hERG” value [2] is reported as “no change in membrane conductance observed”.
In the case of `CC1CCC(C(C)C)C(O)C1` (stereo not drawn) [menthol], the EC50 (TRPM8 [3]; protein:lipid 1:1000, 2.5 μM PI(4,5)P2, n=3) is reported as 112 µM, the “Popen (open probability) of TRPM8” value (TRPM8 [4]; 50 μM menthol) is reported as 0.639±0.029 and the “Popen (open probability) of TRPM8” value (TRPM8 [4]; 500 μM menthol) is reported as 0.967±0.013.
Work on `NCCOB(c1ccccc1)c1ccccc1` [2-APB, 2-aminoethoxydiphenyl borate] yielded an IC50 (TRPM8 [3]; read-out: IC50 of 2-APB on menthol-evoked TRPM8 currents, in 500 μM menthol, protein:lipid 1:1000, n=3) of 4.9 µM.
